The text below walks through data of patent US12577247B2 (BUGWORKS RESEARCH, INC., priority 2021, dated 2026).

One assay has as its target T1, A2A receptor (Homo sapiens, UniProt P29274).
T1 construct: host or cells: HEK-293
As to the kind of experiment: A2aR antagonism IC50, cAMP TR-FRET in HEK-293 cells, high concentration of adenosine (30 μM).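 Further: compounds added 10 min before adenosine, then 30 min stimulation at room temperature in buffer with 100 µM rolipram and 30 µM EHNA, signal read 1 h after detection reagents.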 It is filed as cell-based. The conditions noted are these: HEK-293 cells expressing A2A receptor; agonist adenosine 30 μM; 2% HSA; inhibition of cAMP; read-out: A2AR IC50 (nM) (@30 μM Adenosine).

The target of the next assay is T2, A2B receptor (Homo sapiens, UniProt P29275).
T2 sequence (P29275 1-332): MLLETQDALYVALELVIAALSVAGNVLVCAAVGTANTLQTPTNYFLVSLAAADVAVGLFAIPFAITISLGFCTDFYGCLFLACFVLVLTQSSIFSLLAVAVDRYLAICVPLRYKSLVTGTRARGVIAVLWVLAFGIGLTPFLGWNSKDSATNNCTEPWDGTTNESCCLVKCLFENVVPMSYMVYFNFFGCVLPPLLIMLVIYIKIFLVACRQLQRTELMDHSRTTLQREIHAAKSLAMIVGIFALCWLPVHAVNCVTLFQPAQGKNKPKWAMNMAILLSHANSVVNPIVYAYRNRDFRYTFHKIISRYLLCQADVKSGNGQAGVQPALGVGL
As to the kind of experiment: A2bR antagonism IC50, cAMP TR-FRET in HEK-293 cells, high concentration of adenosine (30 μM).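 Further: compounds preincubated 10 min with cells, then adenosine stimulation 30 min at room temperature in buffer with Rolipram 100 µM and EHNA 30 µM, TR-FRET read after 1 h.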 The conditions noted are these: A2BR IC50 (nM) (@30 μM Adenosine), HEK-293 cells expressing A2B receptor; agonist adenosine 30 μM; 2% HSA; inhibition of cAMP.

T1 sequence (P29274 whole entry): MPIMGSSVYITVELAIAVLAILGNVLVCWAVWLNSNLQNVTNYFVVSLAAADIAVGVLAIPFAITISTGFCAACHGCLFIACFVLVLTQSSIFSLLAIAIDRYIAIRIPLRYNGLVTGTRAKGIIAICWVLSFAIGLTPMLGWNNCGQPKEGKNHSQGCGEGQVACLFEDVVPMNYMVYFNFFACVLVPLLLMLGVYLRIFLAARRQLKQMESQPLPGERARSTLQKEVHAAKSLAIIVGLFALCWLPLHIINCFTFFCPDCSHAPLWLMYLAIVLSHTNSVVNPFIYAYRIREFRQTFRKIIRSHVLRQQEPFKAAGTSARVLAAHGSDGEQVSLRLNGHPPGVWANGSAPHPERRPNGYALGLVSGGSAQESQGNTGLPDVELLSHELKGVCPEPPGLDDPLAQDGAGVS
Method for A2B receptor: A Time-Resolved Fluorescence Energy Transfer (TR-FRET) assay was used to show the inhibition of this cAMP production in HEK cells upon treatment with compounds of the Formula I of the present disclosure.
HEK-293 cells expressing A2A receptor (#ES-011-C) or A2B receptor (#ES 013-C) were obtained from PerkinElmer. Cells were maintained in DMEM medium supplemented with 10% FBS and 200 μg/mL of G418 at 37° C. and 5% CO2. The cells were cultured in antibiotic free medium for a period of 16-20 hours prior to the assay. All subsequent steps of the assay are performed at room temperature (22-24° C.). […] About 1500 cells per well were pre-incubated for 10 minutes with the compounds of the present invention before adding the agonist Adenosine at a high concentration (30 μM) for a total stimulation time of 30 minutes. […] The assays were conducted in a stimulation buffer containing 1×DMEM, 5 mM HEPES, 2% Human serum albumin (HSA), 100 μM Rolipram and 30 μM erythro-9-(2-hydroxy-3-nonyl) adenine (EHNA). Serial dilutions of compounds were made in stimulation buffer to achieve a final concentration of high micromolar in a reaction volume of 10 μL. The total reaction volume was 10 μL (5 μL of cells, 2.5 μL of antagonist and 2.5 μL of agonist). […] The stimulation was ended, and the reaction completed by adding 5 μL of 4× Eu-cAMP tracer working solution and 5 μL of 4× ULight-anti-cAMP working solution. The TR FRET signal was measured after 1-hour incubation using a Tecan M1000 or a PerkinElmer Victor Nivo plate reader.

As to `CCc1c(C)nn2c(N)c(C#N)c(NCCc3ccn(CCC[S+](C)[O-])n3)nc12` (single isomer, unassigned; (+)) [Example 162b, (+)-7-amino-3-ethyl-2-methyl-5-((2-(1-(3-(methylsulfinyl)propyl)-1H-pyrazol-3-yl)ethyl)amino)pyrazolo[1,5-a]pyrimidine-6-carbonitrile], the values for the IC50 on A2A receptor and at A2B receptor were 1230 nM and 2730 nM, respectively.
On to `CCc1c(C)nn2c(N)c(C#N)c(NCCc3ccn(C4(CNCC[S+](C)[O-])CC4)n3)nc12` (single isomer, unassigned; (-)) [Example 163a, (−)-7-amino-3-ethyl-2-methyl-5-((2-(1-(1-(((2-(methylsulfinyl)ethyl)amino)methyl)cyclopropyl)-1H-pyrazol-3-yl)ethyl)amino) pyrazolo[1,5-a]pyrimidine-6-carbonitrile], for which the IC50 is 72 nM at A2A receptor and 11100 nM at A2B receptor.
For `Cc1nn2c(N)c(C#N)c(NCCc3ccn(C4COCC4CO)n3)nc2c1C` (single isomer, unassigned; (+)) [Example 133a, (+)-7-amino-5-((2-(1-(4-(hydroxymethyl)tetrahydrofuran-3-yl)-1H-pyrazol-3-yl)ethyl)amino)-2,3-dimethylpyrazolo[1,5-a]pyrimidine-6-carbonitrile], in that order: 554 nM and 6690 nM.
In the same order, the values of `Cc1nn2c(N)c(C#N)c(NCCc3ccn(C4CCC4CO)n3)nc2c1Br` (stereo not shown) [Example 130, 7-amino-3-bromo-5-((2-(1-(2-(hydroxymethyl)cyclobutyl)-1H-pyrazol-3-yl)ethyl)amino)-2-methylpyrazolo[1,5-a]pyrimidine-6-carbonitrile] are 280 nM and 5880 nM.
Regarding `Cc1nn2c(N)c(C#N)c(NCCc3cccn(CCO)c3=O)nc2c1Cl` [Example 93, 7-amino-3-chloro-5-((2-(1-(2-hydroxyethyl)-2-oxo-1,2-dihydropyridin-3-yl)ethyl)amino)-2-methylpyrazolo[1,5-a]pyrimidine-6-carbonitrile], the results for the IC50 at A2A receptor and at A2B receptor were 50 nM and 1230 nM, respectively.
In the same order, the values of `CCc1c(C)nn2c(N)c(C#N)c(NCCc3cccc(OCCO)n3)nc12` [Example 150, 7-amino-3-ethyl-5-((2-(6-(2-hydroxyethoxy)pyridin-2-yl)ethyl)amino)-2-methylpyrazolo[1,5-a] pyrimidine-6-carbonitrile] are 1150 nM and 1630 nM.
As for `Cc1nn2c(N)c(C#N)c(NCCc3ccn(C4CCC4CNCCO)n3)nc2c1Cl` (stereo not shown) [Example 117, 7-amino-3-chloro-5-((2-(1-(2-(((2-hydroxyethyl)amino)methyl)cyclobutyl)-1H-pyrazol-3-yl)ethyl)amino)-2-methylpyrazolo[1,5-a]pyrimidine-6-carbonitrile], the IC50 was 66 nM at A2A receptor and 3060 nM at A2B receptor.
In the same order, the values of `CCCc1c(C)nn2c(N)c(C#N)c(NCCc3cccc(C)n3)nc12` [Example 164, 7-amino-2-methyl-5-((2-(6-methylpyridin-2-yl)ethyl)amino)-3-propylpyrazolo[1,5-a]pyrimidine-6-carbonitrile] are 8260 nM and over 15000 nM.
`Cc1nn2c(N)c(C#N)c(NCCc3cccn(CCN)c3=O)nc2c1Cl` [Example 125, 7-amino-5-((2-(1-(2-aminoethyl)-2-oxo-1,2-dihydropyridin-3-yl)ethyl)amino)-3-chloro-2-methylpyrazolo[1,5-a] pyrimidine-6-carbonitrile]: the IC50 at A2A receptor is 767 nM; at A2B receptor, over 15000 nM.
`CCc1c(C)nn2c(N)c(C#N)c(NCCc3cccn(CC[S+](C)[O-])c3=O)nc12` (racemic) [Example 143, Racemic (+−)7-amino-3-ethyl-2-methyl-5-((2-(1-(2-(methylsulfinyl)ethyl)-2-oxo-1,2-dihydropyridin-3-yl)ethyl)amino) pyrazolo[1,5-a]pyrimidine-6-carbonitrile]: the half-inhibitory concentration (IC50) is 667 nM on A2A receptor and 1340 nM at A2B receptor.
In the same order, the values of `Cc1nn2c(N)c(C#N)c(NCCc3cccn(C)c3=O)nc2c1Cl` [Example 87, 7-amino-3-chloro-2-methyl-5-((2-(1-methyl-2-oxo-1,2-dihydropyridin 3-yl)ethyl)amino) pyrazolo[1,5-a]pyrimidine-6-carbonitrile] are 80 nM and 1760 nM.
For `Cc1nn2c(N)c(C#N)c(NCCc3ccn(C4COCC4CO)n3)nc2c1Cl` (stereo not shown) [Example 127, 7-amino-3-chloro-5-((2-(1-(4-(hydroxymethyl)tetrahydrofuran-3-yl)-1H-pyrazol-3-yl)ethyl)amino)-2-methylpyrazolo[1,5-a] pyrimidine-6-carbonitrile], in that order: 161 nM and 2170 nM.
For `CCc1c(C)nn2c(N)c(C#N)c(NCCc3cccn(CCSC)c3=O)nc12` [Example 142, 7-amino-3-ethyl-2-methyl-5-((2-(1-(2-(methylthio)ethyl)-2-oxo-1,2-dihydropyridin-3-yl)ethyl)amino)pyrazolo[1,5-a]pyrimidine-6-carbonitrile], in that order: 141 nM and 1660 nM.
Take `CCc1c(C)nn2c(N)c(C#N)c(NCCc3ccn(C4(CNCC[S+](C)[O-])CC4)n3)nc12` (single isomer, unassigned; (+)) [Example 163b, (+)-7-amino-3-ethyl-2-methyl-5-((2-(1-(1-(((2-(methylsulfinyl)ethyl)amino)methyl)cyclopropyl)-1H-pyrazol-3-yl)ethyl)amino) pyrazolo[1,5-a]pyrimidine-6-carbonitrile]: the IC50 on A2A receptor worked out at 82 nM; on A2B receptor, 12200 nM.
For `Cc1nn2c(N)c(C#N)c(NCCc3cccn(CCCN)c3=O)nc2c1C` [Example 141, 7-amino-5-((2-(1-(3-aminopropyl)-2-oxo-1,2-dihydropyridin-3-yl)ethyl)amino)-2,3-dimethylpyrazolo[1,5-a]pyrimidine-6-carbonitrile], in that order: 679 nM and 4750 nM.
For `CCc1c(C)nn2c(N)c(C#N)c(NCCc3ccn(C4(CCNC(C)=O)CC4)n3)nc12` [Example 149, N-(2-(1-(3-(2-((7-amino-6-cyano-3-ethyl-2-methylpyrazolo[1,5-a]pyrimidin-5-yl)amino)ethyl)-1H-pyrazol-1-yl)cyclopropyl)ethyl) acetamide], in that order: 43 nM and 988 nM.
In the same order, the values of `Cc1nn2c(N)c(C#N)c(NCCc3cccc(CNCCO)n3)nc2c1Cl` [Example 90, 7-amino-3-chloro-5-((2-(6-(((2-hydroxyethyl)amino)methyl)pyridin-2-yl)ethyl)amino)-2-methylpyrazolo[1,5-a]pyrimidine-6-carbonitrile] are 77 nM and 1830 nM.
Take `COCCn1cccc(CCNc2nc3c(Cl)c(C)nn3c(N)c2C#N)c1=O` [Example 92, 7-amino-3-chloro-5-((2-(1-(2-methoxyethyl)-2-oxo-1,2-dihydropyridin-3-yl)ethyl)amino)-2-methylpyrazolo[1,5-a]pyrimidine-6-carbonitrile]: the IC50 at A2A receptor came out at 79 nM; at A2B receptor, 5640 nM.
`CCCc1c(C)nn2c(N)c(C#N)c(NCCc3ccn(C4CCC4CO)n3)nc12` (single isomer, unassigned; (+)) [Example 165a, (+)-7-amino-5-((2-(1-(2-(hydroxymethyl)cyclobutyl)-1H-pyrazol-3-yl)ethyl)amino)-2-methyl-3-propylpyrazolo[1,5-a]pyrimidine-6-carbonitrile]: the IC50 at A2A receptor was 2160 nM; on A2B receptor, over 15000 nM.
As to `CCc1c(C)nn2c(N)c(C#N)c(NCCc3cccn(CCO)c3=O)nc12` [Example 108, 7-amino-3-ethyl-5-((2-(1-(2-hydroxyethyl)-2-oxo-1,2-dihydropyridin-3-yl)ethyl)amino)-2-methylpyrazolo[1,5-a]pyrimidine-6-carbonitrile], the IC50 was 392 nM at A2A receptor and 1070 nM at A2B receptor.
Consider `CCCc1c(C)nn2c(N)c(C#N)c(NCCc3ccn(C4CCC4CO)n3)nc12` (single isomer, unassigned; (-)) [Example 165b, (−)-7-amino-5-((2-(1-(2-(hydroxymethyl)cyclobutyl)-1H-pyrazol-3-yl)ethyl)amino)-2-methyl-3-propylpyrazolo[1,5-a]pyrimidine-6-carbonitrile], for which the half-maximal inhibitory concentration (IC50) on A2A receptor was found to be 1540 nM; on A2B receptor it was 9160 nM.
With `CCc1c(C)nn2c(N)c(C#N)c(NCCc3cccc(C(C)O)n3)nc12` (single isomer, unassigned; (+)) [Example 159a, (+)-7-amino-3-ethyl-5-((2-(6-(1-hydroxyethyl)pyridin-2-yl)ethyl)amino)-2-methylpyrazolo[1,5-a]pyrimidine-6-carbonitrile], the IC50 on A2A receptor was found to be 139 nM; at A2B receptor, 911 nM.
For `Cc1nn2c(N)c(C#N)c(NCCc3ccn(C4CCC4CO)n3)nc2c1C` (single isomer, unassigned; (-)) [Example 104b, (−)-7-amino-5-((2-(1-(2-(hydroxymethyl)cyclobutyl)-1H-pyrazol-3-yl)ethyl)amino)-2,3-dimethylpyrazolo[1,5-a]pyrimidine-6-carbonitrile], in that order: 102 nM and 2610 nM.
